Results as given in patent US8987209B2, “N-carboxyalkyl-auristatin and the use thereof” (Seattle Genetics, Inc., priority 2010, dated 2015).
Square brackets hold non-standard residues; d marks the D form. Peptide text beside a SMILES is read from it. * marks the point of attachment. NMeVal(N-(CH2)3COOH) = CC(C)[C@@H](C(=O)*)N(C)CCCC(=O)O; Dolaproine = CO[C@@H]([C@@H]1CCCN1)[C@@H](C)C(=O)O; Dil = CC[C@H](C)[C@H](NC)[C@@H](CC(=O)O)OC; X3 = CC(C)[C@@H](C(=O)*)N(C)CCCCCC(=O)O; Morpholide = C1CN(*)CCO1; NHBn = c1ccc(CN*)cc1

Columns and labels:
[1] = Cell permeability, flux assay using Caco-2 cells; assay type: in vitro ADME; details: human, basal to apical, 2 hours incubation
Protocol: B-5. Determination of Cell Permeability:
The cell permeability of a substance can be analyzed by means of in vitro tests in a flux assay using Caco-2-cells [M. D. Troutman and D. R. Thakker, Pharm. Res. 20 (8), 1210-1224 (2003)]. For this analysis the cells were cultured on 24 membrane filter plates for 15 to 16 days. In order to determine permeation the test substance in question was given either apical (A) to a HEPES buffer or basal (B) on the cells and incubated for 2 hours. The samples were withdrawn after 0 and 2 hours from the cis and trans compartments. The samples were separated by means of HPLC (Agilent 1200, Böblingen, Germany) using reverse-phase columns. The HPLC system was coupled to a triple quadropol mass spectrometer API 4000 (Applied Biosystems Applera, Darmstadt, Germany) via a turbo ion spray. The permeability was evaluated by means of the Papp value which was calculated with the help of the formula published by Schwab et al. [D. Schwab et al., J. Med. Chem. 46, 1716-1725 (2003)]. A substance was classified as active if the ratio of Papp (B-a) to Papp (A-B) was >2 or <0.5.
The permeability from B to A [Papp^(B-A)] is particularly important for toxophores which are being released intracellular: The lower the permeability the longer the residence time of the substance in the cell after intracellular release and, consequently, the more time available for interaction with the biochemical target (here: tubulin).

[2] = system: human renal carcinoma cell line 786-0; experiment: Anti-proliferative effect on renal cell carcinoma 786-0 cell line (MTT assay); assay type: cell-based; details: Homo sapiens, 786-0 cells, incubation 48 to 96 hours, serum free medium or 2% FCS
Protocol: B-1. Determination of Anti-proliferative Effects of Renal Cell Carcinoma 786-0 Cell Line:
A defined number of cells of the human renal carcinoma cell line 786-0 were cultured in a 96 well micro titer plate in rich medium (2500 or 7.000 cells/well) and then incubated over night at 37° C./5% CO2. After 18 hours the seed medium was replaced by a serum free medium or medium with 2% FCS. The treatment began with measuring out the respective test substances in varying concentrations (10^−5 M to 10^−14 M). Incubation times of between 48 hours and 96 hours were chosen. The proliferation was determined by means of the MTT assay (ATCC, Manassas, Va., USA, catalogue no. 30-1010K). After completion of incubation period the MTT reagent was incubated with the cells for 4 hours before lysis occurred over night by measuring out the detergent. The created stain was detected at 570 nm. The proliferation of the cells, which were treated identically to the other cells but without the test substance was defined as the 100% value. The data obtained from this test represent triple determinations and at least two experiments had been carried out independently of each other.

HT-29 wt cell line = experiment: Anti-proliferative effect on HT-29 wt cell line (MTT assay); assay type: cell-based, human; details: Homo sapiens, HT-29 wt cells, incubation 48 to 96 hours, medium with 10% FCS
Protocol: B-2. Determination of Anti-proliferative Effects of HT-29 wt Cell Line:
After 18 hours the seed medium was replaced by a fresh medium with 10% FCS. The treatment started with measuring out the respective test substance. The dose-response curves were determined of the investigative substances with a concentration of 10^−5 M to 10^−14 M (1:10 dilutions). Incubation times of between 48 hours and 96 hours were chosen. The proliferation was detected by means of the MTT assay (ATCC, Manassas, Va., USA, catalogue no. 30-1010K). After completion of selected incubation period the MTT reagent was incubated with the cells for 4 hours before lysis occurred over night by measuring out the detergent. The created stain was detected at 570 nm. The proliferation of the cells, which were treated identically to the other cells but without the test substance, was defined as the 100% value. The data obtained from this test represent triple determinations and at least two experiments had been carried out independently of each other.

Compound `CC[C@H](C)[C@@H]([C@@H](CC(=O)N1CCC[C@H]1[C@H](OC)[C@@H](C)C(=O)N[C@@H](Cc1ccccc1)C(=O)OC)OC)N(C)C(=O)[C@@H](NC(=O)[C@H](C(C)C)N(C)CCCC(=O)O)C(C)C` [Example 7] ({NMeVal(N-(CH2)3COOH)}-V[Dil][Dolaproine]F-OMe) has a Papp B→A at 2 h [1] of 1.8 ×10⁻⁶ cm/s.

With `CCOC(=O)[C@]1(NC(=O)[C@H](C)[C@@H](OC)[C@@H]2CCCN2C(=O)C[C@@H](OC)[C@H]([C@@H](C)CC)N(C)C(=O)[C@@H](NC(=O)[C@H](C(C)C)N(C)CCCC(=O)O)C(C)C)C[C@@H]1c1ccccc1` [Example 12, N-(3-carboxypropyl)-N-methyl-L-valyl-N-[(3R,4S,5S)-1-{(2S)-2-[(1R,2R)-3-{[(1S,2R)-1-(ethoxycarbonyl)-2-phenylcyclopropyl]amino}-1-methoxy-2-methyl-3-oxopropyl]pyrrolidin-1-yl}-3-methoxy-5-methyl-1-oxoheptan-4-yl]-N-methyl-L-valinamide] the Papp B→A at 2 h [1] was 1.5 ×10⁻⁶ cm/s and the IC50 [2] was 0.013 µM.

`CC[C@H](C)[C@@H]([C@@H](CC(=O)N1CCC[C@H]1[C@H](OC)[C@@H](C)C(=O)N[C@@]1(C(N)=O)C[C@@H]1c1ccccc1)OC)N(C)C(=O)[C@@H](NC(=O)[C@H](C(C)C)N(C)CCCC(=O)O)C(C)C` [Example 17, N-(3-carboxypropyl)-N-methyl-L-valyl-N-[(3R,4S,5S)-1-{(2S)-2-[(1R,2R)-3-{[(1S,2R)-1-carbamoyl-2-phenylcyclopropyl]amino}-1-methoxy-2-methyl-3-oxopropyl]pyrrolidin-1-yl}-3-methoxy-5-methyl-1-oxoheptan-4-yl]-N-methyl-L-valinamide] gave a Papp B→A at 2 h [1] of 0.2 ×10⁻⁶ cm/s.

`CC[C@H](C)[C@@H]([C@@H](CC(=O)N1CCC[C@H]1[C@H](OC)[C@@H](C)C(=O)N[C@@H](Cc1c[nH]c2ccccc12)C(N)=O)OC)N(C)C(=O)[C@@H](NC(=O)[C@H](C(C)C)N(C)CCCCCC(=O)O)C(C)C` [Example 19] (X3-V[Dil][Dolaproine]W-NH2) gave a Papp B→A at 2 h [1] of 0.2 ×10⁻⁶ cm/s.

Work on `CC[C@H](C)[C@@H]([C@@H](CC(=O)N1CCC[C@H]1[C@H](OC)[C@@H](C)C(=O)N[C@@H](Cc1ccccc1)C(=O)N1CCOCC1)OC)N(C)C(=O)[C@@H](NC(=O)[C@H](C(C)C)N(C)CCCC(=O)O)C(C)C` [Example 23, N-(3-carboxypropyl)-N-methyl-L-valyl-N-[(3R,4S,5S)-3-methoxy-1-{(2S)-2-[(1R,2R)-1-methoxy-2-methyl-3-{[(2S)-1-(morpholin-4-yl)-1-oxo-3-phenylpropane-2-yl]amino}-3-oxopropyl]pyrrolidin-1-yl}-5-methyl-1-oxoheptan-4-yl]-N-methyl-L-valinamide] ({NMeVal(N-(CH2)3COOH)}-V[Dil][Dolaproine]F-Morpholide) yielded a Papp B→A at 2 h [1] of 0.2 ×10⁻⁶ cm/s.

In the case of `CC[C@H](C)[C@@H]([C@@H](CC(=O)N1CCC[C@H]1[C@H](OC)[C@@H](C)C(=O)N[C@H](C(=O)NCc1ccccc1)[C@@H](C)O)OC)N(C)C(=O)[C@@H](NC(=O)[C@H](C(C)C)N(C)CCCC(=O)O)C(C)C` [Example 25, N-(3-carboxypropyl)-N-methyl-L-valyl-N-[(3R,4S,5S)-1-{(2S)-2-[(1R,2R)-3-{[(2S,3R)-1-(benzylamino)-3-hydroxy-1-oxobutane-2-yl]amino}-1-methoxy-2-methyl-3-oxopropyl]pyrrolidin-1-yl}-3-methoxy-5-methyl-1-oxoheptan-4-yl]-N-methyl-L-valinamide] ({NMeVal(N-(CH2)3COOH)}-V[Dil][Dolaproine]T-NHBn), the IC50 (HT-29 wt cell line) is reported as 0.0015 µM and the IC50 [2] is reported as 0.164 µM.

`CC[C@H](C)[C@@H]([C@@H](CC(=O)N1CCC[C@H]1[C@H](OC)[C@@H](C)C(=O)N[C@H](COCc1ccc(C(=O)OC)cc1)Cc1ccccc1)OC)N(C)C(=O)[C@@H](NC(=O)[C@H](C(C)C)N(C)CCCC(=O)O)C(C)C` [Example 26, N-(3-carboxypropyl)-N-methyl-L-valyl-N-[(3R,4S,5S)-3-methoxy-1-{(2S)-2-[(1R,2R)-1-methoxy-3-{[(2S)-1-{[4-(methoxycarbonyl)benzyl]oxy}-3-phenylpropane-2-yl]amino}-2-methyl-3-oxopropyl]pyrrolidin-1-yl}-5-methyl-1-oxoheptan-4-yl]-N-methyl-L-valinamide] showed an IC50 (HT-29 wt cell line) of 0.0015 µM and an IC50 [2] of 0.01 µM.
